Some results are limits rather than exact numbers.

A word on the EC50: it is the concentration giving half of the maximal effect. Broadly, the IC50 is the midpoint of a concentration-inhibition curve.

The test system of assay [1] is DLD-1 BRCA2(−/−) cells. The experiment in a line: Cell growth inhibition assay (CellTiter-Glo cell viability, 7 days). Format: cell-based. Particulars: Homo sapiens, 168 h. In outline: (§1)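 Cells were seeded at 50 (DLD-1 parental), 200 (DLD-1 BRCA2−/−) or 500 (MDA-MB-436) cells/well onto 1:3 compound dilutions, top final 10 or 30 μM. Culture ran 7 days at 37 °C, 5% CO2. ATP was read by CellTiter-Glo 2.0, and IC50 was fitted from growth inhibition.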
(ATP-based viability assays read luminescence as a measure of living cells.)

The subject of assay [2] is DLD-1 parental cells. The description is as above. In kind it is cell-based. Particulars: Homo sapiens, 168 h. In outline: as §1
The subject of assay [3] is MDA-MB-436 (mutated BRCA1) cells. Described as above. Format: cell-based. Particulars: Homo sapiens, 168 h, MDA-MB-436, 7 days. Put shortly: as §1
In assay [4] the target is PARP1 (Homo sapiens (Human), UniProt P09874). Description: Biochemical fluorescent polarization (FP) assay, displacement of PARPi-FL. Format: binding. Particulars: 20 nM protein, 3 nM PARPi-FL, 4 h at room temperature. Put shortly: (§2)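 Purified PARP1 or PARP2 at 20 nM final with 3 nM PARPi-FL in 50 mM Tris pH 8.0, 0.001% Triton X-100, 10 mM MgCl2, 150 mM NaCl. Incubated 4 h at room temperature, then fluorescence polarization read; controls with and without protein.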

For assay [5], the target named is PARP2 (Homo sapiens (Human), UniProt Q9UGN5). The description is as above. Particulars: 20 nM protein, 3 nM PARPi-FL, 4 h at room temperature; read-out: IC50 FP PARP2. Format: binding. In outline: as §2
Chain of PARP2 (Q9UGN5 whole entry): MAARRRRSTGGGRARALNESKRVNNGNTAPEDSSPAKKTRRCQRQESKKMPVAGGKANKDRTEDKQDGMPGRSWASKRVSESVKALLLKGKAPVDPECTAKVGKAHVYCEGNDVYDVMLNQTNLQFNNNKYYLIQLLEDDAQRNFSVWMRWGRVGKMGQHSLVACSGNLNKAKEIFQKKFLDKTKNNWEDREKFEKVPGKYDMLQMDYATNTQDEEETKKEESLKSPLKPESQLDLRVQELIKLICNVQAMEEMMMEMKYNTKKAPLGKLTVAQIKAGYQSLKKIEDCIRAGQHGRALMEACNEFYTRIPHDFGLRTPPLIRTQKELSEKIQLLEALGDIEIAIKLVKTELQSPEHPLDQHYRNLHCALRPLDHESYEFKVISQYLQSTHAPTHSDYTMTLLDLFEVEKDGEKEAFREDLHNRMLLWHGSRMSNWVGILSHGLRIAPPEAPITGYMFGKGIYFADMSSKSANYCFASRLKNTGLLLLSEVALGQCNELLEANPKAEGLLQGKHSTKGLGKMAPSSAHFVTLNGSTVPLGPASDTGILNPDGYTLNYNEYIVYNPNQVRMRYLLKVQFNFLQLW

Chain of PARP1 (P09874 whole entry): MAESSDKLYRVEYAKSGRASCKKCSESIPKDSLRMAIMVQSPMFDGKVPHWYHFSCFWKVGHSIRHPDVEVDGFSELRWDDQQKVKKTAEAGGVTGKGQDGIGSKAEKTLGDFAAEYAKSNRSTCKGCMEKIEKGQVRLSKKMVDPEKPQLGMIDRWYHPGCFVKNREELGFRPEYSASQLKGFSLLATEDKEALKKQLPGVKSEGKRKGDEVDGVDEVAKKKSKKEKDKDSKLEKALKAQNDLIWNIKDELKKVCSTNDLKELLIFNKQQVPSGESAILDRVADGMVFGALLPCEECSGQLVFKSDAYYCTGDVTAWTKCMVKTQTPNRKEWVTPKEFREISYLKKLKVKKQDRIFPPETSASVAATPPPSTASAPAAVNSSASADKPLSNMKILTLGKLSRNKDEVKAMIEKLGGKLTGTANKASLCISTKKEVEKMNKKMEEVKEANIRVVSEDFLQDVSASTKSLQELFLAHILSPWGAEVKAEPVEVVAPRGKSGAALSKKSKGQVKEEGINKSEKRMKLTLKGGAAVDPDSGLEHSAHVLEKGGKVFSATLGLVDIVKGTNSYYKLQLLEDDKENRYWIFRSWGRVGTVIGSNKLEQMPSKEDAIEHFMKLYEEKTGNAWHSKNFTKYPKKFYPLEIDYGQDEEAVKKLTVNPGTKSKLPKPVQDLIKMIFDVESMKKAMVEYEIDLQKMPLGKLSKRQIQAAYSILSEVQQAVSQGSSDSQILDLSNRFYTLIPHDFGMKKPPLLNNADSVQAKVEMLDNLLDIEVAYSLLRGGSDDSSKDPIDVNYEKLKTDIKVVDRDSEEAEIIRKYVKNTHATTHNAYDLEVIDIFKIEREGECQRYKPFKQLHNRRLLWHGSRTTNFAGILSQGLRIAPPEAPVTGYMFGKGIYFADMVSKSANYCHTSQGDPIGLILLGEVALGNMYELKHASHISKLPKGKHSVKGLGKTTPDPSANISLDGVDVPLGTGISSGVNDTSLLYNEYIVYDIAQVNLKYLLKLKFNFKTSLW

Turning to `CCc1cc2ncc(CN3CC[C@@H](Oc4ccc(C(=O)NC)nc4)C3)cc2[nH]c1=O` [Example 2, 5-{[(3R)-1-[(7-ethyl-6-oxo-5H-1,5-naphthyridin-3-yl)methyl]pyrrolidin-3-yl]oxy}-N-methylpyridine-2-carboxamide], the EC50 in assay [1] is 3.3 nM; in assay [2], greater than 30000 nM; in assay [3], 1.6 nM. Further, the IC50 is 4.2 nM in assay [4] and greater than 10000 nM in assay [5].

Regarding `C[C@@H]1[C@@H](Oc2ccc(C(=O)NC3CC3)nc2)CN1Cc1cnc2cc(Cl)c(=O)[nH]c2c1` [Example 76, 5-{[(2R,3S)-1-[(7-chloro-6-oxo-5H-1,5-naphthyridin-3-yl)methyl]-2-methylazetidin-3-yl]oxy}-N-cyclopropylpyridine-2-carboxamide], the figures for the 50% effective concentration (EC50) in assay [1] and in assay [3] were 1.4 nM and 1.1 nM, respectively. Besides, the figures for the IC50 in assay [4] and in assay [5] were 2.8 nM and 8700 nM, respectively.

With `CNC(=O)c1ccc(O[C@H]2CN(Cc3cnc4cc(Cl)c(=O)[nH]c4c3)[C@@H]2C)cn1` [Example 77], the figures for the EC50 in assay [1] and in assay [3] were 3.8 nM and 1.8 nM, respectively. Further, the IC50 in assay [4] is 3.8 nM; in assay [5], greater than 100000 nM.

Consider `Cc1cc2ncc(CN3C[C@H](Oc4ccc(C(=O)NC5CC(F)(F)C5)nc4)[C@H]3C)cc2[nH]c1=O` [Example 80], for which the EC50 was found to be 4.3 nM in assay [1] and 1.8 nM in assay [3]. The IC50 stood at 3.8 nM in assay [4] and 5300 nM in assay [5].

For `Cc1cc2ncc(CN3C[C@H](Oc4ccc(C(=O)N[C@H]5C[C@H](F)C5)nc4)[C@H]3C)cc2[nH]c1=O` [Example 82], the results for the EC50 in assay [1] and in assay [3] were 3.1 nM and 2.1 nM, respectively. Also, the IC50 in assay [4] worked out at 4.5 nM; in assay [5], 6800 nM.

With `C[C@@H]1[C@@H](Oc2ccc(C(=O)NC3CC3)nc2)CN1Cc1cnc2c(c1)[nH]c(=O)c1ccoc12` [Example 84], the EC50 in assay [1] worked out at 3 nM; in assay [3] it was 1.4 nM. The IC50 in assay [4] stood at 8.8 nM; in assay [5], 48000 nM.

`CNC(=O)c1ccc(O[C@H]2CN(Cc3ccc4nc(C)c(=O)[nH]c4c3F)[C@@H]2C)cn1` [Example 91]: the EC50 in assay [1] was 23 nM; in assay [3], 27 nM. Further, the IC50 was 11 nM in assay [4] and greater than 100000 nM in assay [5].

These data come from patent US11802128B2, “Azetidine and pyrrolidine PARP1 inhibitors and uses thereof” (Xinthera, Inc., priority 2021, dated 2023).
